The compounds below were run against human APJ receptor (Homo sapiens (Human), UniProt P35414) (assay: [35S]GTPγS binding assay on membranes from CHO cells stably expressing human APJ receptor). Conditions: membranes of CHO cells stably expressing human APJ receptor, read-out: Activity hAPJ SPA EC50 IP.
Assay type: biochemical
Procedure, shortened: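 [35S]GTPγS binding measured on membranes from CHO cells stably expressing FLAG-tagged human APJ, with GDP, MgCl2 and NaCl levels optimized beforehand. Incubation 90 min at RT, imager read-out; EC50 from non-linear regression, averaged over several independent experiments.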

human APJ receptor, sequence (P35414 whole entry): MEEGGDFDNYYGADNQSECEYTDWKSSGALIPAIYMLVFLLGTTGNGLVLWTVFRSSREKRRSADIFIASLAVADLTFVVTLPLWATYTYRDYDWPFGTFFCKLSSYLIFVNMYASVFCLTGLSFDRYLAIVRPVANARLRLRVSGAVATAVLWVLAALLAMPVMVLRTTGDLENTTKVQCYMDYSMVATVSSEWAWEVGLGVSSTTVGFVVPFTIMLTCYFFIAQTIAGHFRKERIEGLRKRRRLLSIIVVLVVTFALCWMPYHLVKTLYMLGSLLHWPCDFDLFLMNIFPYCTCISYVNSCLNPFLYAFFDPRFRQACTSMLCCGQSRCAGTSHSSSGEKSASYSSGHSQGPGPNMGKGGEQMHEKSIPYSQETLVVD

| Structure (SMILES) | EC50 [nM] |
| --- | --- |
| COCC(COC)n1c(NS(=O)(=O)[C@@H](C)[C@H](OC)c2ncc(Cl)cn2)nnc1-c1cccnc1 [Example 16.0] | 44 |
| COCC(COC)n1c(NS(=O)(=O)[C@@H](C)[C@H](C)c2cnc(C)cn2)nnc1-c1cccnc1 [Example 17.0, (2S,3R)-N-(4-(1,3-dimethoxy-2-propanyl)-5-(3-pyridinyl)-4H-1,2,4-triazol-3-yl)-3-(5-methyl-2-pyrazinyl)-2-butanesulfonamide] | 380 |
| COCC(COC)n1c(NS(=O)(=O)[C@@H](C)[C@H](C)c2ncc(Cl)cn2)nnc1-c1cccnc1 [Example 19.0, (2S,3R)-3-(5-chloro-2-pyrimidinyl)-N-(4-(1,3dimethoxy-2-propanyl)-5-(3-pyridinyl)-4H-1,2,4-triazol-3-yl)-2-butanesulfonamide] | 26 |
| COCCn1c(NS(=O)(=O)[C@@H](C)[C@H](C)c2ncc(OC)cn2)nnc1-c1cccc(OC)n1 [Example 20.0, (2S,3R)-N-(4-(2-methoxyethyl)-5-(6-methoxy-2-pyridinyl)-4H-1,2,4-triazol-3-yl)-3-(5-methoxy-2-pyrimidinyl)-2-butanesulfonamide] | 110 |
| COCCn1c(NS(=O)(=O)[C@@H](C)[C@H](C)c2ncc(OC)cn2)nnc1-c1ccccn1 [Example 21.0, (2S,3R)-N-(4-(2-methoxyethyl)-5-(2-pyridinyl)-4H-1,2,4-triazol-3-yl)-3-(5-methoxy-2-pyrimidinyl)-2-butanesulfonamide] | 430 |
| CCOCCn1c(NS(=O)(=O)[C@@H](C)[C@H](OC)c2ncc(Cl)cn2)nnc1-c1cccc(OC)n1 [Example 22.0, (1R,2S)-1-(5-chloro-2-pyrimidinyl)-N-(4-(2-ethoxyethyl)-5-(6-methoxy-2-pyridinyl)-4H-1,2,4-triazol-3-yl)-1-methoxy-2-propanesulfonamide] | 3.2 |
| COCCn1c(NS(=O)(=O)[C@@H](C)[C@@H](OC(C)C)c2ncc(Cl)cn2)nnc1-c1ccccn1 [Example 23.0, (1S,2S)-1-(5-chloro-2-pyrimidinyl)-N-(4-(2-methoxyethyl)-5-(2-pyridinyl)-4H-1,2,4-triazol-3-yl)-1-(2-propanyloxy)-2-propanesulfonamide] | 15 |
| COc1cccc(-c2nnc(NS(=O)(=O)[C@@H](C)[C@H](OC)c3ncc(Cl)cn3)n2C(C2CC2)C2CC2)n1 [Example 25.0, (1R,2S)-1-(5-chloro-2-pyrimidinyl)-N-(4-(dicyclopropylmethyl)-5-(6-methoxy-2-pyridinyl)-4H-1,2,4-triazol-3-yl)-1-methoxy-2-propanesulfonamide] | 0.08 |
| COc1cccc(-c2nnc(NS(=O)(=O)[C@@H](C)[C@H](OC)c3ncc(Cl)cn3)n2CCSC)n1 [Example 26.0, (1R,2S)-1-(5-chloropyrimidin-2-yl)-1-methoxy-N-(5-(6-methoxypyridin-2-yl)-4-(2-(methylthio)ethyl)-4H-1,2,4-triazol-3-yl)propane-2-sulfonamide] | 12 |
| COCCOc1cccc(-c2nnc(NS(=O)(=O)[C@@H](C)[C@H](OC)c3ncc(Cl)cn3)n2C(COC)COC)n1 [Example 42.0] | 17 |
| COc1cccc(-c2nnc(NS(=O)(=O)[C@@H](C)[C@H](OC)c3ncc(Cl)cn3)n2CCOC(F)F)n1 [Example 43.0] | 3.7 |
| COc1cccc(-c2nnc(NS(=O)(=O)[C@@H](C)[C@H](OC)c3ncc(Cl)cn3)n2CCC#N)n1 [Example 44.0] | 4.9 |
| COc1cccc(-c2nnc(NS(=O)(=O)[C@@H](C)[C@H](OC)c3ncc(Cl)cn3)n2CCC(N)=O)n1 [Example 45.0] | 60 |
| CO[C@H](c1ncc(Cl)cn1)[C@H](C)S(=O)(=O)Nc1nnc(-c2ccccn2)n1C(C1CC1)C1CC1 [Example 46.0] | 0.33 |
| CCC(CC)n1c(NS(=O)(=O)[C@@H](C)[C@H](OC)c2ncc(Cl)cn2)nnc1-c1ccccn1 [Example 47.0] | 5.3 |
| COC[C@H](C)n1c(NS(=O)(=O)[C@@H](C)[C@H](OC)c2ncc(Cl)cn2)nnc1-c1cccc(OC)n1 [Example 48.0] | 1.3 |
| COC[C@@H](C)n1c(NS(=O)(=O)[C@@H](C)[C@H](OC)c2ncc(Cl)cn2)nnc1-c1cccc(OC)n1 [Example 49.0] | 0.88 |
| COCC1(n2c(NS(=O)(=O)[C@@H](C)[C@H](OC)c3ncc(Cl)cn3)nnc2-c2cccc(OC)n2)CCC1 [Example 50.0] | 0.46 |
| COCC1(n2c(NS(=O)(=O)[C@@H](C)[C@H](OC)c3ncc(Cl)cn3)nnc2-c2ccccn2)CCC1 [Example 51.0] | 1.8 |
| COc1cccc(-c2nnc(NS(=O)(=O)[C@@H](C)[C@H](OC)c3ncc(Cl)cn3)n2CCS(C)(=O)=O)n1 [Example 57.0, (1R,2S)-1-(5-Chloro-2-pyrimidinyl)-1-methoxy-N-(5-(6-methoxy-2-pyridinyl)-4-(2-(methylsulfonyl)ethyl)-4H-1,2,4-triazol-3-yl)-2-propanesulfonamide] | 211 |
| Cc1cnc([C@H](OC(C)C)[C@H](C)S(=O)(=O)Nc2nnc(-c3cncc(C)c3)n2C2(C)CC2)nc1 [Example 58.0] | 42 |
| CO[C@H](c1ncc(Cl)cn1)[C@H](C)S(=O)(=O)Nc1nnc(-c2cccc(C)n2)n1C1(C)CCC1 [Example 59.0] | 28 |
| COCC1(n2c(NS(=O)(=O)[C@@H](C)[C@H](OC)c3ncc(Cl)cn3)nnc2-c2cccnc2)CC1 [Example 60.0] | 1.2 |
| COCC1(n2c(NS(=O)(=O)[C@@H](C)[C@H](OC)c3ncc(Cl)cn3)nnc2-c2ccccn2)CC1 [Example 61.0] | 0.89 |
| COCC1(n2c(NS(=O)(=O)[C@@H](C)[C@@H](OC(C)C)c3ncc(C)cn3)nnc2-c2cccnc2)CC1 [Example 62.0] | 27 |
| COCC1(n2c(NS(=O)(=O)[C@@H](C)[C@@H](OC(C)C)c3ncc(C)cn3)nnc2-c2cncc(C)c2)CC1 [Example 63.0] | 20 |
| COCC1(n2c(NS(=O)(=O)[C@@H](C)[C@@H](OC(C)C)c3ncc(C)cn3)nnc2-c2cccc(OC)n2)CC1 [Example 64.0] | 0.16 |

| Structure (SMILES) | EC50 [nM] |
| --- | --- |
| COCC1(n2c(NS(=O)(=O)[C@@H](C)[C@@H](OC(C)C)c3ncc(C)cn3)nnc2-c2ccccn2)CC1 [Example 65.0] | 24 |
| COCC1(n2c(NS(=O)(=O)[C@@H](C)[C@H](C)c3cnc(C)cn3)nnc2-c2cccnc2)CC1 [Example 66.0] | 38 |
| COCC1(n2c(NS(=O)(=O)[C@@H](C)[C@H](OC)c3ncc(C)cn3)nnc2-c2ccccn2)CC1 [Example 67.0] | 24 |
| COCC1(n2c(NS(=O)(=O)[C@@H](C)[C@H](C)c3ncc(Cl)cn3)nnc2-c2cccnc2)CC1 [Example 68.0] | 2.8 |
| COc1cccc(-c2nnc(NS(=O)(=O)[C@@H](C)[C@H](OC)c3ncc(Cl)cn3)n2C2CC2)n1 [Example 69.0] | 0.89 |
| COc1cccc(-c2nnc(NS(=O)(=O)[C@@H](C)[C@@H](OC(C)C)c3ncc(Cl)cn3)n2C2CC2)n1 [Example 70.0] | 0.6 |
| COc1cccc(-c2nnc(NS(=O)(=O)[C@@H](C)[C@H](OC)c3ncc(Cl)cn3)n2CC2CCC2)n1 [Example 73.0] | 3 |
| COc1cccc(-c2nnc(NS(=O)(=O)[C@@H](C)[C@H](OC)c3ncc(Cl)cn3)n2CCc2ccc(F)cc2)n1 [Example 74.0] | 31 |
| COc1cccc(-c2nnc(NS(=O)(=O)[C@@H](C)[C@H](OC)c3ncc(Cl)cn3)n2Cc2ccon2)n1 [Example 76.0] | 3.3 |
| COc1cccc(-c2nnc(NS(=O)(=O)[C@@H](C)[C@H](OC)c3ncc(Cl)cn3)n2CC(OC)OC)n1 [Example 77.0] | 135 |
| CO[C@H](c1ncc(Cl)cn1)[C@H](C)S(=O)(=O)Nc1nnc(-c2ccccn2)n1C1(C)CC1 [Example 97.0] | 11 |
| COCC(COC)n1c(NS(=O)(=O)[C@@H](C)[C@H](C)c2ncc(C)cn2)nnc1-c1cccc(OC)n1 [Example 98.0] | 6.2 |
| COCC(COC)n1c(NS(=O)(=O)[C@@H](C)[C@H](C)c2ncc(OC)cn2)nnc1-c1cccc(OC)n1 [Example 99.0] | 4.2 |
| COCC(COC)n1c(NS(=O)(=O)[C@@H](C)[C@H](OC)c2ncc(C)cn2)nnc1-c1cccc(OC)n1 [Example 100.0] | 6.4 |
| COCC(COC)n1c(NS(=O)(=O)[C@@H](C)[C@H](OC)c2cnc(OC)cn2)nnc1-c1cccc(OC)n1 [Example 101.0] | 8.9 |
| COCC(COC)n1c(NS(=O)(=O)[C@@H](C)[C@H](C)c2cnc(C)cn2)nnc1-c1cccc(OC)n1 [Example 102.0] | 20 |
| COCC(COC)n1c(NS(=O)(=O)[C@@H](C)[C@H](OC)c2cnc(C)cn2)nnc1-c1cccc(OC)n1 [Example 103.0] | 15 |
| COCC(COC)n1c(NS(=O)(=O)[C@@H](C)[C@@H](OC(C)C)c2ncc(C)cn2)nnc1-c1cccc(OC)n1 [Example 104.0] | 0.39 |
| COCC(COC)n1c(NS(=O)(=O)[C@@H](C)[C@@H](OC(C)C)c2cnc(C)cn2)nnc1-c1cccc(OC)n1 [Example 105.0] | 2.8 |
| COc1cccc(-c2nnc(NS(=O)(=O)[C@@H](C)[C@H](OC)c3ncc(Cl)cn3)n2C2(CF)CC2)n1 [Example 106.0] | 0.38 |
| COc1cccc(-c2nnc(NS(=O)(=O)[C@@H](C)[C@H](OC)c3ncc(Cl)cn3)n2C2(C3CC3)CC2)n1 [Example 107.0] | 0.42 |
| CO[C@H](c1ncc(Cl)cn1)[C@H](C)S(=O)(=O)Nc1nnc(-c2ccccn2)n1C1(C2CC2)CC1 [Example 108.0] | 5.9 |
| COc1cccc(-c2nnc(NS(=O)(=O)[C@@H](C)[C@H](OC)c3cnc(C)cn3)n2C2(C3CC3)CC2)n1 [Example 109.0] | 9.6 |
| CO[C@H](c1cnc(C)cn1)[C@H](C)S(=O)(=O)Nc1nnc(-c2ccccn2)n1C1(C2CC2)CC1 [Example 110.0] | 110 |
| CCC(CC)n1c(NS(=O)(=O)[C@@H](C)[C@H](OC)c2ncc(Cl)cn2)nnc1-c1cccnc1 [Example 111.0] | 27 |
| CO[C@H](c1ncc(Cl)cn1)[C@H](C)S(=O)(=O)Nc1nnc(-c2cccnc2)n1C(C1CC1)C1CC1 [Example 112.0] | 3.3 |
| COCC(COC)n1c(NS(=O)(=O)[C@@H](C)[C@@H](OC(C)C)c2ncc(Cl)cn2)nnc1-c1ccccn1 [Example 113.0] | 1.8 |
